Laboratory results as given in patent US12331046B2, “CTPS1 inhibitors and uses thereof” (Nimbus Clotho, Inc., priority 2020, dated 2025).

The molecules below were run against human CTPS1 (Homo sapiens (Human), UniProt P17812) (assay: hCTPS1 biochemical assay (ADP-Glo)). Details: hCTPS1 25 nM, ATP 120 uM, UTP 160 uM, GTP 60 uM, L-Glutamine 100 uM, 25 degrees C.
Sequence of human CTPS1 (P17812 whole entry): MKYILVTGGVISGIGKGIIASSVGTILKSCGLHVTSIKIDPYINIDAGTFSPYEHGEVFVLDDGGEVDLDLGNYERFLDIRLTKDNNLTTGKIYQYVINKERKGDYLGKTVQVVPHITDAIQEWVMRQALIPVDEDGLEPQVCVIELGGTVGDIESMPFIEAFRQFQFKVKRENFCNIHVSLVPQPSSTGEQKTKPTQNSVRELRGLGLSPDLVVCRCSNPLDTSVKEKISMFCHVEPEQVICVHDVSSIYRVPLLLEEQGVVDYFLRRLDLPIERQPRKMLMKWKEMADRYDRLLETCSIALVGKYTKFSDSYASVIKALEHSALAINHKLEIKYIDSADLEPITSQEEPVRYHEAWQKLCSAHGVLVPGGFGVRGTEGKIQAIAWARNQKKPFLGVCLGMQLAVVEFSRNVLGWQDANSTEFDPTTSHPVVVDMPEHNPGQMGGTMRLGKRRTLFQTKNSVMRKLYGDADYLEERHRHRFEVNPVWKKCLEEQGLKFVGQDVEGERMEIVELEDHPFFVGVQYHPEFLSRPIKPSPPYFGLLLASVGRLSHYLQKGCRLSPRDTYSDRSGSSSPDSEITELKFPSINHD

Row | SMILES | IC50 [µM]
1 | CCOc1cncc(-c2cnc(C(=O)N[C@@H](CCN(C)C)c3c(F)ccc(NS(=O)(=O)C4CC4)c3F)s2)n1 (single isomer, unassigned) [I-125] | ≥ 1
2 | CCOc1cncc(-c2cnc(C(=O)N[C@@H](CCN3CCCCC3)c3cc(NS(=O)(=O)C4CC4)ccn3)s2)n1 [I-161, (S)—N-(1-(4-(cyclopropanesulfonamido)pyridin-2-yl)-3-(piperidin-1-yl)propyl)-5-(6-ethoxypyrazin-2-yl)thiazole-2-carboxamide] | < 0.1
3 | CCOc1cncc(-c2cnc(C(=O)NC(c3cc(NS(=O)(=O)C4CC4)ccn3)C3CCN(C)CC3)s2)n1 (stereo not shown) [I-146, N-((4-(cydopropanesulfonamido)pyridin-2-yl)(1-methylpiperidin-4-yl)methyl)-5-(6-ethoxypyrazin-2-yl)thiazole-2-carboxamide] | < 0.1
4 | CCOc1cncc(-c2cnc(C(=O)N[C@@H](CN3CCCCC3)c3cc(NS(=O)(=O)C4CC4)ccn3)s2)n1 (single isomer, unassigned) [I-214] | < 0.1
5 | O=C(c1ncc(-c2cnc3[nH]cc(CC(F)F)c3n2)s1)N1CCCC1c1ccnc(NS(=O)(=O)C2CC2)n1 (stereo not shown) [I-137, N-[4-(1-{5-[7-(2,2-difluoroethyl)-5H-pyrrolo[2,3-b]pyrazin-2-yl]-1,3-thiazole-2-carbonyl}pyrrolidin-2-yl)pyrimidin-2-yl] cyclopropanesulfonamide] | < 0.1
6 | CCOc1cncc(-c2ncc(C(=O)N3CCC[C@@H]3c3cccc(NS(=O)(=O)C(F)F)c3)s2)n1 [I-74, N-[3-[(2R)-1-[2-(6-ethoxypyrazin-2-yl)-1,3-thiazole-5-carbonyl]pyrrolidin-2-yl]phenyl]-1,1-difluoromethanesulfonamide] | < 0.1
7 | CCOc1cncc(-c2cnc(C(=O)N[C@H](C[C@@H]3CCCCN3C)c3cc(NS(=O)(=O)C4CC4)ccn3)s2)n1 (single isomer, unassigned) [I-136] | < 0.1
8 | CCOc1cncc(-n2cnc(C(=O)NC3(c4cccc(NS(=O)(=O)C(F)F)c4)CC3)c2)n1 [I-283, N-[1-[3-(difluoromethanesulfonamido)phenyl]cyclopropyl]-1-(6-ethoxypyrazin-2-yl)imidazole-4-carboxamide] | < 0.1
9 | CCOc1cncc(-c2cnc(C(=O)N[C@H](c3cc(NS(=O)(=O)C4CC4)ccn3)[C@H]3C[C@H](N(C)C)C3)s2)n1 (single isomer, unassigned) [I-106] | < 0.1
10 | CCOc1cncc(-c2cnc(C(=O)N[C@H](C[C@H]3CCCCN3C)c3cc(NS(=O)(=O)C4CC4)ccn3)s2)n1 [I-145, N—((R)-1-(4-(cyclopropanesulfonamido)pyridin-2-yl)-2-((R)-1-methylpiperidin-2-yl)ethyl)-5-(6-ethoxypyrazin-2-yl)thiazole-2-carboxamide] | < 0.1
11 | O=C(NC1(c2csc(NS(=O)(=O)C3CC3)n2)CC1)c1ccc2ccccc2c1 [I-1, N-(1-(2-(cyclopropanesulfonamido)thiazol-4-yl)cyclopropyl)-2-naphthamide] | 0.1 to 1
12 | CCOc1cncc(-c2cnc(C(=O)N[C@H](CC3CCN(C)CC3)c3cc(NS(=O)(=O)C4CC4)ccn3)s2)n1 [I-100, (R)—N-(1-(4-(cyclopropanesulfonamido)pyridin-2-yl)-2-(1-methylpiperidin-4-yl)ethyl)-5-(6-ethoxypyrazin-2-yl)thiazole-2-carboxamide] | < 0.1
13 | CCOc1cncc(-c2cnc(C(=O)N[C@@H](CCN3CCCC3)c3cc(NS(=O)(=O)C4CC4)ccn3)s2)n1 [I-159, (S)—N-(1-(4-(cyclopropanesulfonamido)pyridin-2-yl)-3-(pyrrolidin-1-yl)propyl)-5-(6-ethoxypyrazin-2-yl)thiazole-2-carboxamide] | < 0.1
14 | CCOc1cncc(-c2cnc(C(=O)N[C@H](CN3CCNCC3)c3cc(NS(=O)(=O)C4CC4)ccn3)s2)n1 [I-205, (R)—N-(1-(4-(cyclopropanesulfonamido)pyridin-2-yl)-2-(piperazin-1-yl)ethyl)-5-(6-ethoxypyrazin-2-yl)thiazole-2-carboxamide] | < 0.1

More lines, now with the values ahead:

Row | IC50 [µM] | SMILES
15 | < 0.1 | CCOc1cncc(-c2sc(C(=O)N[C@H](CC)c3cc(NS(=O)(=O)C4CC4)ccn3)nc2C)n1 [I-220, (R)—N-(1-(4-(cyclopropanesulfonamido)pyridin-2-yl)propyl)-5-(6-ethoxypyrazin-2-yl)-4-methylthiazole-2-carboxamide]
16 | < 0.1 | CCOc1cncc(-c2cnc(C(=O)N[C@H](C[C@H]3CCCCN3)c3cc(NS(=O)(=O)C4CC4)ccn3)s2)n1 [I-172, N—((R)-1-(4-(cyclopropanesulfonamido)pyridin-2-yl)-2-((R)-piperidin-2-yl)ethyl)-5-(6-ethoxypyrazin-2-yl)thiazole-2-carboxamide]
17 | < 0.1 | O=C(NCc1cc(NS(=O)(=O)C2CC2)ccn1)c1ncc(-c2cnn3ccc(Cl)cc23)s1 [I-197]
18 | 0.1 to 1 | O=C(NCc1cc(NS(=O)(=O)C2CC2)ccn1)c1ncc(-c2cncc(C(F)(F)F)c2)s1 [I-251, N-((4-(cyclopropanesulfonamido)pyridin-2-yl)methyl)-5-(5-(trifluoromethyl)pyridin-3-yl)thiazole-2-carboxamide]
19 | < 0.1 | CCOc1cncc(-c2ccc(C(=O)N[C@@H](CC)c3cc(NS(=O)(=O)C4CC4)ccn3)c(F)c2)n1 [I-73]
20 | < 0.1 | CCOc1cncc(-c2ccc(C(=O)NCc3cccc(NS(=O)(=O)C(F)(F)F)c3)nc2)n1 [I-53, 5-(6-ethoxypyrazin-2-yl)-N-[[3-(trifluoromethanesulfonamido)phenyl]methyl] pyridine-2-carboxamide]
21 | ≥ 1 | CCOc1cncc(-c2cccc(C(=O)NCc3cccc(NS(=O)(=O)C(F)F)c3)c2)n1 [I-280, N-[[3-(difluoromethanesulfonamido)phenyl]methyl]-3-(6-ethoxypyrazin-2-yl)benzamide]
22 | 0.1 to 1 | CCOc1cncc(-c2ccc3c(c2)C(=O)N(Cc2cc(NS(=O)(=O)C4CC4)ccn2)C3=O)n1 [I-78, N-(2-[[5-(6-ethoxypyrazin-2-yl)-1,3-dioxoisoindol-2-yl]methyl]pyridin-4-yl) cyclopropane Sulfonamide]
23 | < 0.1 | CCOc1cncc(-c2ccc(C(=O)NC3(c4cccc(NS(=O)(=O)C(F)F)c4)CC3)c(F)c2)n1 [I-267, N-[1-[3-(difluoromethanesulfonamido)phenyl]cyclopropyl]-4-(6-ethoxypyrazin-2-yl)-2-fluorobenzamide]
24 | < 0.1 | CCOc1cncc(-c2ccc(C(=O)NCc3cc(NS(=O)(=O)C4CC4)ccn3)c(F)c2)n1 [I-25]
25 | < 0.1 | CCOc1cncc(-c2cnc(C(=O)N[C@@](C)(CCOC)c3cc(NS(=O)(=O)C4CC4)ccn3)s2)n1 [I-163, (S)—N-(2-(4-(cyclopropanesulfonamido)pyridin-2-yl)-4-methoxybutan-2-yl)-5-(6-ethoxypyrazin-2-yl)thiazole-2-carboxamide]
26 | < 0.1 | CCOc1cncc(-c2cnc(C(=O)N[C@@H](c3cc(NS(=O)(=O)C4CC4)ccn3)[C@@H]3CCOC3)s2)n1 (single isomer, unassigned) [I-93]
27 | 0.1 to 1 | CCOc1cncc(N2CCN(C(=O)NCc3cc(NS(=O)(=O)C4CC4)ccn3)CC2)n1 [I-27]
28 | < 0.1 | CCOc1cncc(-c2ccc(NC(=O)Cc3cc(NS(=O)(=O)C4CC4)ccn3)nc2)n1 [I-40, 2-(4-(cyclopropanesulfonamido)pyridin-2-yl)-N-(5-(6-ethoxypyrazin-2-yl)pyridin-2-yl)acetamide]
